Experimental data taken from patent US20240252506A1 (Hoffmann-La Roche Inc., priority 2021, published 2024).
Converted amounts (≈) assume the structure as drawn.

Tested on: Escherichia coli ATCC 25922
Test: Minimal Inhibitory Concentration (MIC) determination, broth microdilution (CLSI M07-A10)
Type: cell-based
Details: Escherichia coli, ATCC25922, strain Escherichia coli ATCC 25922, 18-24 hours at 35±2° C., lowest concentration for complete growth inhibition (no visible growth), read-out: Escherichia coli growth inhibition MIC
How it was run: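 MIC read visually as the lowest concentration with complete growth inhibition after 18-24 h at 35±2° C, ambient air. Method follows CLSI M07-A10 broth microdilution, two-fold compound series, inoculum standardized to 0.5 McFarland then diluted 1:200.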

Q: CN[C@H](C)c1nc2c(F)c3c(c(F)c2[nH]1)CC(CNC1CC2(C1)CN(c1cnc4c(n1)NC(=O)CO4)C(=O)O2)C3 (stereo partly drawn) [Example 26, 6-[2-[[4,8-difluoro-2-[(1R)-1-(methylamino)ethyl]-3,5,6,7-tetrahydrocyclopenta[f]benzimidazol-6-yl]methylamino]-6-oxo-5-oxa-7-azaspiro[3.4]octan-7-yl]-4H-pyrazino[2,3-b][1,4]oxazin-3-one] was tested. Which MIC did it give?
A: 0.5 µg/mL (≈ 0.902 µM)

Q: For CN[C@H]1CN[C@H](c2nc3c(F)c4c(c(F)c3[nH]2)CC(CN2CCC3(CC2)CN(c2cnc5c(n2)NC(=O)CO5)C(=O)O3)C4)C1 [Example 27, 6-[8-[[4,8-difluoro-2-[(2S,4R)-4-(methylamino)pyrrolidin-2-yl]-3,5,6,7-tetrahydrocyclopenta[f]benzimidazol-6-yl]methyl]-2-oxo-1-oxa-3,8-diazaspiro[4.5]decan-3-yl]-4H-pyrazino[2,3-b][1,4]oxazin-3-one], which MIC is on record?
A: 0.25 µg/mL (≈ 0.41 µM)

Q: How did the MIC turn out when O=C(O)C(F)(F)F.O=C1COc2ncc(N3CC4(CCN(CC5Cc6c(c(F)c7[nH]c([C@@H]8CC(O)CCN8)nc7c6F)C5)CC4)OC3=O)nc2N1 (stereo partly drawn) [Example 28, 6-[8-[[4,8-difluoro-2-[(2S)-4-hydroxy-2-piperidyl]-3,5,6,7-tetrahydrocyclopenta[f]benzimidazol-6-yl]methyl]-2-oxo-1-oxa-3,8diazaspiro[4.5]decan-3-yl]-4H-pyrazino[2,3-b][1,4]oxazin-3-one; 2,2,2-trifluoroacetic acid] was run?
A: 0.25 µg/mL

Q: For CN(C)Cc1nc2c(F)c3c(c(F)c2[nH]1)CC(CNC1CC2(C1)CN(c1cnc4c(n1)NC(=O)CO4)C(=O)O2)C3 (stereo not drawn) [Example 29, 6-[2-[[2-[(dimethylamino)methyl]-4,8-difluoro-3,5,6,7-tetrahydrocyclopenta[f]benzimidazol-6-yl]methylamino]-6-oxo-5-oxa-7-azaspiro[3.4]octan-7-yl]-4H-pyrazino[2,3-b][1,4]oxazin-3-one], which MIC is on record?
A: 0.5 µg/mL (≈ 0.902 µM)

Q: How did the MIC turn out when CC(C)(N)c1nc2c(F)c3c(c(F)c2[nH]1)CC(CN1CCC2(CC1)CN(c1cnc4c(n1)NC(=O)CO4)C(=O)O2)C3 [Example 30, 6-[8-[[2-(1-amino-1-methyl-ethyl)-4,8-difluoro-3,5,6,7-tetrahydrocyclopenta[f]benzimidazol-6-yl]methyl]-2-oxo-1-oxa-3,8-diazaspiro[4.5]decan-3-yl]-4H-pyrazino[2,3-b][1,4]oxazin-3-one] was run?
A: 0.125 µg/mL (≈ 0.22 µM)

Q: For N[C@H]1COC[C@@H]1c1nc2c(F)c3c(c(F)c2[nH]1)CC(CN1CCC2(CC1)CN(c1cnc4c(n1)NC(=O)CO4)C(=O)O2)C3 [Example 31, 6-[8-[[4,8-difluoro-2-[(3S,4R)-4-aminotetrahydrofuran-3-yl]-3,5,6,7-tetrahydrocyclopenta[f]benzimidazol-6-yl]methyl]-2-oxo-1-oxa-3,8-diazaspiro[4.5]decan-3-yl]-4H-pyrazino[2,3-b][1,4]oxazin-3-one], which MIC is on record?
A: 0.25 µg/mL (≈ 0.419 µM)

Q: For Nc1nc2c(F)c3c(c(F)c2[nH]1)CC(CN1CCC2(CC1)CN(c1cnc4c(n1)NC(=O)CO4)C(=O)O2)C3 [Example 32, 6-[8-[(2-amino-4,8-difluoro-3,5,6,7-tetrahydrocyclopenta[f]benzimidazol-6-yl)methyl]-2-oxo-1-oxa-3,8-diazaspiro[4.5]decan-3-yl]-4H-pyrazino[2,3-b][1,4]oxazin-3-one], which MIC is on record?
A: 0.25 µg/mL (≈ 0.475 µM)

Q: Which MIC does the source give for CNCc1nc2c(F)c3c(c(F)c2n1C)CC(CN1CCC2(CC1)CN(c1cnc4c(n1)NC(=O)CO4)C(=O)O2)C3 (stereo not drawn) [Example 33, 6-[8-[[4,8-difluoro-1-methyl-2-(methylaminomethyl)-6,7-dihydro-5H-cyclopenta[f]benzimidazol-6-yl]methyl]-2-oxo-1-oxa-3,8-diazaspiro[4.5]decan-3-yl]-4H-pyrazino[2,3-b][1,4]oxazin-3-one] here?
A: 0.25 µg/mL (≈ 0.44 µM)

Q: For O=C1COc2ncc(N3CC4(CCN(CC5Cc6c(c(F)c7[nH]c(C89CC(CN8)C9)nc7c6F)C5)CC4)OC3=O)nc2N1 [Example 34, 6-[8-[[2-(2-azabicyclo[2.1.1]hexan-1-yl)-4,8-difluoro-3,5,6,7-tetrahydrocyclopenta[f]benzimidazol-6-yl]methyl]-2-oxo-1-oxa-3,8-diazaspiro[4.5]decan-3-yl]-4H-pyrazino[2,3-b][1,4]oxazin-3-one], which MIC is on record?
A: 0.25 µg/mL (≈ 0.422 µM)

Q: CNCC(=O)Nc1nc2c(F)c3c(c(F)c2[nH]1)CC(CN1CCC2(CC1)CN(c1cnc4c(n1)NC(=O)CO4)C(=O)O2)C3 [Example 35, N-[4,8-difluoro-6-[[2-oxo-3-(3-oxo-4H-pyrazino[2,3-b][1,4]oxazin-6-yl)-1-oxa-3,8-diazaspiro[4.5]decan-8-yl]methyl]-3,5,6,7-tetrahydrocyclopenta[f]benzimidazol-2-yl]-2-(methylamino)acetamide] was tested. Which MIC did it give?
A: 0.125 µg/mL (≈ 0.209 µM)

Q: C[C@H](O)[C@@H](N)c1nc2c(F)c3c(c(F)c2[nH]1)CC(CN1CCC2(CC1)CN(c1cnc4c(n1)NC(=O)CO4)C(=O)O2)C3 [Example 36, 6-[8-[[2-[(1S,2S)-1-amino-2-hydroxy-propyl]-4,8-difluoro-3,5,6,7-tetrahydrocyclopenta[f]benzimidazol-6-yl]methyl]-2-oxo-1-oxa-3,8-diazaspiro[4.5]decan-3-yl]-4H-pyrazino[2,3-b][1,4]oxazin-3-one] was tested. Which MIC did it give?
A: 0.5 µg/mL (≈ 0.855 µM)

Q: For CO[C@@H]1CN[C@@H](c2nc3c(F)c4c(c(F)c3[nH]2)CC(CN2CCC3(CC2)CN(c2cnc5c(n2)NC(=O)CO5)C(=O)O3)C4)C1 [Example 37, 6-[8-[[4,8-difluoro-2-[(2R,4S)-4-methoxypyrrolidin-2-yl]-3,5,6,7-tetrahydrocyclopenta[f]benzimidazol-6-yl]methyl]-2-oxo-1-oxa-3,8-diazaspiro[4.5]decan-3-yl]-4H-pyrazino[2,3-b][1,4]oxazin-3-one], which MIC is on record?
A: 0.25 µg/mL (≈ 0.409 µM)

Q: How did the MIC turn out when CN[C@@H](C)c1nc2c(F)c3c(c(F)c2[nH]1)CC(CN1CCC2(CC1)CN(c1cnc4c(n1)NC(=O)CO4)C(=O)O2)C3 [Example 38, 6-[8-[[4,8-difluoro-2-[(1S)-1-(methylamino)ethyl]-3,5,6,7-tetrahydrocyclopenta[f]benzimidazol-6-yl]methyl]-2-oxo-1-oxa-3,8-diazaspiro[4.5]decan-3-yl]-4H-pyrazino[2,3-b][1,4]oxazin-3-one] was run?
A: 0.125 µg/mL (≈ 0.22 µM)

Q: For Nc1cnc2c(F)c3c(c(F)c2n1)CC(CN1CCC2(CC1)CN(c1cnc4c(n1)NC(=O)CO4)C(=O)O2)C3 (stereo not drawn) [Example 39, 6-[8-[(3-amino-5,9-difluoro-7,8-dihydro-6H-cyclopenta[g]quinoxalin-7-yl)methyl]-2-oxo-1-oxa-3,8-diazaspiro[4.5]decan-3-yl]-4H-pyrazino[2,3-b][1,4]oxazin-3-one], which MIC is on record?
A: 0.5 µg/mL (≈ 0.928 µM)

Q: With CNCCNc1cnc2c(F)c3c(c(F)c2n1)CC(CN1CCC2(CC1)CN(c1cnc4c(n1)NC(=O)CO4)C(=O)O2)C3 (stereo not drawn) [Example 40, 6-[8-[[5,9-difluoro-3-[2-(methylamino)ethylamino]-7,8-dihydro-6H-cyclopenta[g]quinoxalin-7-yl]methyl]-2-oxo-1-oxa-3,8-diazaspiro[4.5]decan-3-yl]-4H-pyrazino[2,3-b][1,4]oxazin-3-one] as the compound, how does the MIC read?
A: 0.5 µg/mL (≈ 0.839 µM)

Q: With NCCn1nc2c(F)c3c(c(F)c2n1)CC(CN1CCC2(CC1)CN(c1cnc4c(n1)NC(=O)CO4)C(=O)O2)C3 [Example 41, 6-[8-[[2-(2-aminoethyl)-4,8-difluoro-6,7-dihydro-5H-cyclopenta[f]benzotriazol-6-yl]methyl]-2-oxo-1-oxa-3,8-diazaspiro[4.5]decan-3-yl]-4H-pyrazino[2,3-b][1,4]oxazin-3-one] as the compound, how does the MIC read?
A: ≤ 0.06 µg/mL

Q: Which MIC does the source give for NCCn1nnc2c(F)c3c(c(F)c21)CC(CN1CCC2(CC1)CN(c1cnc4c(n1)NC(=O)CO4)C(=O)O2)C3 (stereo not drawn) [Example 42, 6-[8-[[1-(2-aminoethyl)-4,8-difluoro-6,7-dihydro-5H-cyclopenta[f]benzotriazol-6-yl]methyl]-2-oxo-1-oxa-3,8-diazaspiro[4.5]decan-3-yl]-4H-pyrazino[2,3-b][1,4]oxazin-3-one] here?
A: ≤ 0.06 µg/mL

Q: NCCn1c(=O)n(CCN)c2c(F)c3c(c(F)c21)CC(CN1CCC2(CC1)CN(c1cnc4c(n1)NC(=O)CO4)C(=O)O2)C3.O=C(O)C(F)(F)F [Example 43, 6-[8-[[1,3-bis(2-aminoethyl)-4,8-difluoro-2-oxo-6,7-dihydro-5H-cyclopenta[f]benzimidazol-6-yl]methyl]-2-oxo-1-oxa-3,8-diazaspiro[4.5]decan-3-yl]-4H-pyrazino[2,3-b][1,4]oxazin-3-one; 2,2,2-trifluoroacetic acid] was tested. Which MIC did it give?
A: 2 µg/mL

Q: With NCCn1c(=O)[nH]c2c(F)c3c(c(F)c21)CC(CN1CCC2(CC1)CN(c1cnc4c(n1)NC(=O)CO4)C(=O)O2)C3 (stereo not drawn) [Example 44, 6-[8-[[1-(2-aminoethyl)-4,8-difluoro-2-oxo-3,5,6,7-tetrahydrocyclopenta[f]benzimidazol-6-yl]methyl]-2-oxo-1-oxa-3,8-diazaspiro[4.5]decan-3-yl]-4H-pyrazino[2,3-b][1,4]oxazin-3-one] as the compound, how does the MIC read?
A: 0.25 µg/mL (≈ 0.438 µM)

Q: C[C@@H](N)c1nc2cc3c(c(F)c2[nH]1)CC(CN1CCC2(CC1)CN(c1cnc4c(n1)NC(=O)CO4)C(=O)O2)C3 (stereo partly drawn) [Example 45, 6-[8-[[2-[(1R)-1-aminoethyl]-8-fluoro-1,5,6,7-tetrahydrocyclopenta[f]benzimidazol-6-yl]methyl]-2-oxo-1-oxa-3,8-diazaspiro[4.5]decan-3-yl]-4H-pyrazino[2,3-b][1,4]oxazin-3-one] was tested. Which MIC did it give?
A: 0.125 µg/mL (≈ 0.233 µM)

Q: O=C(O)C(F)(F)F.O=C1COc2ncc(N3CC4(CCN(CC5Cc6c(c(F)c7[nH]c([C@@H]8C[C@@H](O)CN8)nc7c6F)C5)CC4)OC3=O)nc2N1 [Example 46, 6-[8-[[4,8-Difluoro-2-[(2S,4R)-4-hydroxypyrrolidin-2-yl]-3,5,6,7-tetrahydrocyclopenta[f]benzimidazol-6-yl]methyl]-2-oxo-1-oxa-3,8-diazaspiro[4.5]decan-3-yl]-4H-pyrazino[2,3-b][1,4]oxazin-3-one;2,2,2-trifluoroacetic acid] was tested. Which MIC did it give?
A: 0.25 µg/mL
